Results reported in PubChem BioAssay (NCI).
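The concentration for 50% growth inhibition is given as GI50. At the TGI there is no net growth.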

What was measured:
Assay in all cases: NCI tumour cell line growth inhibition, 384-well format
OVCAR-3 ovarian = tested on: OVCAR-3 ovarian
ACHN renal = tested on: ACHN renal
786-0 renal = tested on: 786-0 renal
HOP-62 NSCLC = tested on: HOP-62 NSCLC
U251 glioblastoma = tested on: U251 glioblastoma
T-47D breast = tested on: T-47D breast
NCI-H322M lung = tested on: NCI-H322M lung
SK-MEL-28 melanoma = tested on: SK-MEL-28 melanoma
OVCAR-4 ovarian = tested on: OVCAR-4 ovarian
SK-MEL-2 melanoma = tested on: SK-MEL-2 melanoma
NCI-H226 lung = tested on: NCI-H226 lung
UO-31 renal = tested on: UO-31 renal
SF-539 CNS = tested on: SF-539 CNS
EKVX NSCLC = tested on: EKVX NSCLC
PC-3 prostate = tested on: PC-3 prostate
OVCAR-5 ovarian = tested on: OVCAR-5 ovarian
COLO 205 colon = tested on: COLO 205 colon
A549 NSCLC = tested on: A549 NSCLC
TK-10 renal = tested on: TK-10 renal
IGROV1 ovarian = tested on: IGROV1 ovarian
OVCAR-8 ovarian = tested on: OVCAR-8 ovarian
NCI-H23 lung = tested on: NCI-H23 lung
SN12C renal = tested on: SN12C renal
SF-268 CNS = tested on: SF-268 CNS
MDA-MB-231 breast = tested on: MDA-MB-231 breast
HL-60(TB) leukemia = tested on: HL-60(TB) leukemia
UACC-257 melanoma = tested on: UACC-257 melanoma
CAKI-1 renal = tested on: CAKI-1 renal
HCT-15 colon = tested on: HCT-15 colon
A498 renal = tested on: A498 renal
MALME-3M melanoma = tested on: MALME-3M melanoma
HOP-92 NSCLC = tested on: HOP-92 NSCLC
SR leukemia = tested on: SR leukemia
MDA-MB-468 breast = tested on: MDA-MB-468 breast
SK-MEL-5 melanoma = tested on: SK-MEL-5 melanoma
SK-OV-3 ovarian = tested on: SK-OV-3 ovarian
HT29 colon = tested on: HT29 colon
SNB-19 CNS = tested on: SNB-19 CNS
HCT-116 colon = tested on: HCT-116 colon
KM12 colon = tested on: KM12 colon
M14 melanoma = tested on: M14 melanoma
NCI-H460 NSCLC = tested on: NCI-H460 NSCLC
NCI-H522 lung = tested on: NCI-H522 lung
MCF7 breast = tested on: MCF7 breast
UACC-62 melanoma = tested on: UACC-62 melanoma
SW-620 colon = tested on: SW-620 colon
RXF 393 renal = tested on: RXF 393 renal
DU-145 prostate = tested on: DU-145 prostate
SNB-75 CNS = tested on: SNB-75 CNS
K-562 leukemia = tested on: K-562 leukemia
MOLT-4 leukemia = tested on: MOLT-4 leukemia
BT-549 breast = tested on: BT-549 breast
HS 578T breast = tested on: HS 578T breast
MDA-MB-435 melanoma = tested on: MDA-MB-435 melanoma
SF-295 CNS = tested on: SF-295 CNS

COc1cc2c(N3CCN(C(=O)Nc4ccc(OC(C)C)cc4)CC3)ncnc2cc1OCCCN1CCCCC1
GI50 (OVCAR-3 ovarian): 14.3 µM | TGI (OVCAR-3 ovarian): 28.2 µM | GI50 (ACHN renal): 9.76 µM | TGI (ACHN renal): 22.6 µM | GI50 ([…]-0 renal): 8.32 µM | TGI (786-0 renal): 20.7 µM | GI50 (HOP-62 NSCLC): 7.62 µM | TGI (HOP-62 NSCLC): 21.1 µM | GI50 (U251 glioblastoma): 11 µM | TGI (U251 glioblastoma): 23.1 µM | GI50 (T-47D breast): 10.4 µM | TGI (T-47D breast): 22.3 µM | GI50 (NCI-H322M lung): 12.1 µM | TGI (NCI-H322M lung): 32.7 µM | GI50 (SK-MEL-28 melanoma): 12.3 µM | TGI (SK-MEL-28 melanoma): 24.8 µM | GI50 (OVCAR-4 ovarian): 13.9 µM | TGI (OVCAR-4 ovarian): 30.5 µM | GI50 (SK-MEL-2 melanoma): 3.78 µM | TGI (SK-MEL-2 melanoma): 12.8 µM | GI50 (NCI-H226 lung): 7.66 µM | TGI (NCI-H226 lung): 21.5 µM | GI50 (UO-31 renal): 16.4 µM | TGI (UO-31 renal): 30.1 µM | GI50 (SF-539 CNS): 1840 nM | TGI (SF-539 CNS): 16.4 µM | GI50 (EKVX NSCLC): 5.21 µM | TGI (EKVX NSCLC): 19.5 µM | GI50 (PC-3 prostate): 10.8 µM | TGI (PC-3 prostate): 24 µM | GI50 (OVCAR-5 ovarian): 13.1 µM | TGI (OVCAR-5 ovarian): 35 µM | GI50 (COLO 205 colon): 12.1 µM | TGI (COLO 205 colon): 24.7 µM | GI50 (A549 NSCLC): 14.1 µM | TGI (A549 NSCLC): 29 µM | GI50 (TK-10 renal): 10.8 µM | TGI (TK-10 renal): 25.2 µM | GI50 (IGROV1 ovarian): 13.4 µM | TGI (IGROV1 ovarian): 26.9 µM | GI50 (OVCAR-8 ovarian): 11.3 µM | TGI (OVCAR-8 ovarian): 32.3 µM | GI50 (NCI-H23 lung): 12 µM | TGI (NCI-H23 lung): 25.7 µM | GI50 (SN12C renal): 13.1 µM | TGI (SN12C renal): 26.2 µM | GI50 (SF-268 CNS): 8.64 µM | TGI (SF-268 CNS): 21.1 µM | GI50 (MDA-MB-231 breast): 13.6 µM | TGI (MDA-MB-231 breast): 31.4 µM | GI50 (HL-60(TB) leukemia): 15 µM | TGI (HL-60(TB) leukemia): 28.4 µM | GI50 (UACC-257 melanoma): 1990 nM | TGI (UACC-257 melanoma): 4.04 µM | GI50 (CAKI-1 renal): 2250 nM | TGI (CAKI-1 renal): 6.6 µM | GI50 (HCT-15 colon): 15.8 µM | TGI (HCT-15 colon): 29.5 µM | GI50 (A498 renal): 5.09 µM | TGI (A498 renal): 17.3 µM | GI50 (MALME-3M melanoma): 5.03 µM | TGI (MALME-3M melanoma): 17.2 µM | GI50 (HOP-92 NSCLC): 9.13 µM | TGI (HOP-92 NSCLC): 21.3 µM | GI50 (SR leukemia): 1930 nM | TGI (SR leukemia): 3.54 µM | GI50 (MDA-MB-468 breast): 3.91 µM | TGI (MDA-MB-468 breast): 14.5 µM | GI50 (SK-MEL-5 melanoma): 9 µM | TGI (SK-MEL-5 melanoma): 21.1 µM | GI50 (SK-OV-3 ovarian): 12.5 µM | TGI (SK-OV-3 ovarian): 25.2 µM | GI50 (HT29 colon): 3.24 µM | TGI (HT29 colon): 11.3 µM | GI50 (SNB-19 CNS): 16 µM | TGI (SNB-19 CNS): 41.6 µM | GI50 (HCT-116 colon): 9.38 µM | TGI (HCT-116 colon): 21.6 µM | GI50 (KM12 colon): 12.3 µM | TGI (KM12 colon): 25.1 µM | GI50 (M14 melanoma): 12.3 µM | TGI (M14 melanoma): 24.9 µM | GI50 (NCI-H460 NSCLC): 2480 nM | TGI (NCI-H460 NSCLC): 12.2 µM | GI50 (NCI-H522 lung): 12.5 µM | TGI (NCI-H522 lung): 25 µM | GI50 (MCF7 breast): 3.18 µM | TGI (MCF7 breast): 15.1 µM | GI50 (UACC-62 melanoma): 7.65 µM | TGI (UACC-62 melanoma): 20.6 µM | GI50 (SW-620 colon): 10.9 µM | TGI (SW-620 colon): 23.1 µM | GI50 (RXF 393 renal): 2820 nM | TGI (RXF 393 renal): 9.78 µM | GI50 (DU-145 prostate): 12.5 µM | TGI (DU-145 prostate): 26.3 µM | GI50 (SNB-75 CNS): 9.87 µM | TGI (SNB-75 CNS): 21.6 µM | GI50 (K-562 leukemia): 3.31 µM | TGI (K-562 leukemia): 11.5 µM | GI50 (MOLT-4 leukemia): 2610 nM | TGI (MOLT-4 leukemia): 5.95 µM | GI50 (BT-549 breast): 8.6 µM | TGI (BT-549 breast): 20.8 µM | GI50 (HS 578T breast): 4.87 µM | TGI (HS 578T breast): 17.9 µM | GI50 (MDA-MB-435 melanoma): 13 µM | TGI (MDA-MB-435 melanoma): 25.9 µM | GI50 (SF-295 CNS): 11.5 µM | TGI (SF-295 CNS): 23.8 µM
